Experiments:
[1] = target: T1, NKG2D-Fc (Homo sapiens, UniProt P26718); test: Size-exclusion chromatography co-elution with NKG2D-Fc; type: binding
T1 construct: the extracellular domain of NKG2D was fused with an IgG Fc fragment; made in house; host or cells: CHO cells
T1 sequence (P26718 73-216 limits assumed): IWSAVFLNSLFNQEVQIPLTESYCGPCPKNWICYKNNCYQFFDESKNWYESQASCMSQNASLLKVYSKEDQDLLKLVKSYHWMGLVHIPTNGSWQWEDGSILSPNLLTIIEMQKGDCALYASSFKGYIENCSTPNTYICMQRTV

[2] = target: T1, NKG2D-Fc; test: ELISA affinity against NKG2D-Fc; type: binding; details: FITC derivatives; read-out: dissociation constant (KD) against NKG2D-Fc by ELISA
Protocol: Selection results were decoded with C++^[ [61] ^] and visualized using MATLAB R2019b (MathWorks). EFs were calculated by dividing the DNA sequence counts for each hit compound by the average DNA sequence count from the corresponding DEL screening. Additionally, Z‐score values were calculated following methods previously published,^[ [60] ^] as present in Supporting Information. Hit compounds with high EFs in the target protein selections and low EFs in the negative controls (anti‐target and streptavidin selections) were selected for hit validation activities. All compounds were synthesized using either solid‐phase peptide synthesis or solution‐phase methodologies. Affinities of fluorescein‐bearing hits were determined by FP or ELISA measurements. […] ACP3 colorimetric inhibition assay was performed with serially diluted compounds at a fixed concentration (5 mM in PBS) of para‐nitrophenyl phosphate as substrate. Binding kinetics were assessed on a Biacore X100 instrument with the target protein immobilized on a CM5 chip at 4′000 RUs. Cell binding of fluorescent ligands was evaluated using flow cytometry against antigen‐positive and antigen‐negative (wild‐type) cancer cells. in vitro tissue uptake of ^177Lu‐labelled DOTAGA PSMA‐radioligands was measured via autoradiography. […]
Grenier 384 transparent, flat-bottom well plates were used. Each test compound was measured in triplicate. […]

- co-elution with NKG2D-Fc in size-exclusion chromatography [1]: kinetically stable complex
- Kd [2]: 133 nM
SMILES: CC(C)Oc1ccc(-c2cccc(C[C@H](NC(=O)c3ccccc3-c3ccc(C(F)(F)F)cc3)C(=O)N[C@@H](CCCCNC(=S)Nc3ccc4c(c3)C(=O)OC43c4ccc(O)cc4Oc4cc(O)ccc43)C(=O)O)c2)c(F)c1 [compound 30]
